Test results: ChEMBL document CHEMBL4396916, “Novel potent substituted 4-amino-2-thiopyrimidines as dual VEGFR-2 and BRAF kinase inhibitors” (Eur J Med Chem, 2019)

Key:
[1] = system: K562; assay: Growth inhibition of human K562 cells at 10 uM incubated for 48 hrs by sulforhodamine B assay relative to control; type: functional; conditions: K562, 48 h, read-out: GI
[2] = system: SK-MEL-5; assay: Growth inhibition of human SK-MEL-5 cells at 10 uM incubated for 48 hrs by sulforhodamine B assay relative to control; type: functional; conditions: SK-MEL-5, 48 h, read-out: GI
[3] = system: Hs-578T; assay: Growth inhibition of human Hs578T cells at 10 uM incubated for 48 hrs by sulforhodamine B assay relative to control; type: functional; conditions: read-out: GI
[4] = system: NCI-H522; assay: Growth inhibition of human NCI-H522 cells at 10 uM incubated for 48 hrs by sulforhodamine B assay relative to control; type: functional; conditions: NCI-H522, 48 h, read-out: GI
[5] = system: HOP-92; assay: Growth inhibition of human HOP92 cells at 10 uM incubated for 48 hrs by sulforhodamine B assay relative to control; type: functional; conditions: HOP-92, 48 h, read-out: GI
[6] = system: CCRF-CEM; assay: Growth inhibition of human CCRF-CEM cells at 10 uM incubated for 48 hrs by sulforhodamine B assay relative to control; type: functional; conditions: read-out: GI
[7] = system: OVCAR-8; assay: Growth inhibition of human OVCAR8 cells at 10 uM incubated for 48 hrs by sulforhodamine B assay relative to control; type: functional; conditions: OVCAR-8, 48 h, read-out: GI
[8] = system: MOLT-4; assay: Growth inhibition of human MOLT4 cells at 10 uM incubated for 48 hrs by sulforhodamine B assay relative to control; type: functional; conditions: MOLT-4, 48 h, read-out: GI
[9] = system: NCI-H460; assay: Growth inhibition of human NCI-H460 cells at 10 uM incubated for 48 hrs by sulforhodamine B assay relative to control; type: functional; conditions: NCI-H460, 48 h, read-out: GI
[10] = system: MDA-MB-435; assay: Growth inhibition of human MDA-MB-435 cells at 10 uM incubated for 48 hrs by sulforhodamine B assay relative to control; type: functional; conditions: MDA-MB-435, 48 h, read-out: GI
[11] = system: T47D; assay: Cytotoxicity against human T47D cells expressing wild type BRAF measured after 48 hrs by sulforhodamine B assay; type: functional, cell-based
[12] = system: MCF7; assay: Growth inhibition of human MCF7 cells at 10 uM incubated for 48 hrs by sulforhodamine B assay relative to control; type: functional; conditions: MCF7, 48 h, read-out: GI
[13] = system: IGROV-1; assay: Growth inhibition of human IGROV1 cells at 10 uM incubated for 48 hrs by sulforhodamine B assay relative to control; type: functional; conditions: IGROV-1, 48 h, read-out: GI
[14] = system: LOX IMVI; assay: Growth inhibition of human LOXIMVI cells at 10 uM incubated for 48 hrs by sulforhodamine B assay relative to control; type: functional; conditions: read-out: GI
[15] = system: SR; assay: Growth inhibition of human SR cells at 10 uM incubated for 48 hrs by sulforhodamine B assay relative to control; type: functional; conditions: read-out: GI
[16] = system: BT-549; assay: Growth inhibition of human BT549 cells at 10 uM incubated for 48 hrs by sulforhodamine B assay relative to control; type: functional; conditions: BT-549, 48 h, read-out: GI
[17] = system: UO-31; assay: Growth inhibition of human UO31 cells at 10 uM incubated for 48 hrs by sulforhodamine B assay relative to control; type: functional; conditions: UO-31, 48 h, read-out: GI
[18] = system: UACC-62; assay: Growth inhibition of human UACC62 cells at 10 uM incubated for 48 hrs by sulforhodamine B assay relative to control; type: functional; conditions: UACC-62, 48 h, read-out: GI
[19] = system: NCI/ADR-RES; assay: Growth inhibition of human NCI/ADR-RES cells at 10 uM incubated for 48 hrs by sulforhodamine B assay relative to control; type: functional; conditions: read-out: GI
[20] = system: EKVX; assay: Growth inhibition of human EKVX cells at 10 uM incubated for 48 hrs by sulforhodamine B assay relative to control; type: functional; conditions: read-out: GI
[21] = system: HCT-116; assay: Growth inhibition of human HCT116 cells at 10 uM incubated for 48 hrs by sulforhodamine B assay relative to control; type: functional; conditions: HCT-116, 48 h, read-out: GI
[22] = system: CAKI-1; assay: Growth inhibition of human Caki1 cells at 10 uM incubated for 48 hrs by sulforhodamine B assay relative to control; type: functional; conditions: CAKI-1, 48 h, read-out: GI
[23] = system: PC-3; assay: Growth inhibition of human PC3 cells at 10 uM incubated for 48 hrs by sulforhodamine B assay relative to control; type: functional; conditions: PC-3, 48 h, read-out: GI
[24] = system: SNB-75; assay: Growth inhibition of human SNB75 cells at 10 uM incubated for 48 hrs by sulforhodamine B assay relative to control; type: functional; conditions: SNB-75, 48 h, read-out: GI
[25] = system: MCF7; assay: Cytotoxicity against human MCF7 cells expressing VEGFR2 and wild type BRAF measured after 48 hrs by sulforhodamine B assay; type: functional, cell-based; conditions: MCF7, 48 h
[26] = system: RPMI-8226; assay: Growth inhibition of human RPMI8226 cells at 10 uM incubated for 48 hrs by sulforhodamine B assay relative to control; type: functional; conditions: RPMI-8226, 48 h, read-out: GI
[27] = system: T47D; assay: Growth inhibition of human T47D cells at 10 uM incubated for 48 hrs by sulforhodamine B assay relative to control; type: functional; conditions: read-out: GI
[28] = system: NCI-H226; assay: Growth inhibition of human NCI-H226 cells at 10 uM incubated for 48 hrs by sulforhodamine B assay relative to control; type: functional; conditions: NCI-H226, 48 h, read-out: GI
[29] = system: OVCAR-3; assay: Growth inhibition of human OVCAR3 cells at 10 uM incubated for 48 hrs by sulforhodamine B assay relative to control; type: functional; conditions: OVCAR-3, 48 h, read-out: GI
[30] = system: A498; assay: Growth inhibition of human A498 cells at 10 uM incubated for 48 hrs by sulforhodamine B assay relative to control; type: functional; conditions: A498, 48 h, read-out: GI
[31] = system: KM12; assay: Growth inhibition of human KM12 cells at 10 uM incubated for 48 hrs by sulforhodamine B assay relative to control; type: functional; conditions: KM12, 48 h, read-out: GI
[32] = system: M14; assay: Growth inhibition of human M14 cells at 10 uM incubated for 48 hrs by sulforhodamine B assay relative to control; type: functional; conditions: M14, 48 h, read-out: GI
[33] = system: SNB-19; assay: Growth inhibition of human SNB19 cells at 10 uM incubated for 48 hrs by sulforhodamine B assay relative to control; type: functional; conditions: SNB-19, 48 h, read-out: GI
[34] = system: SN12C; assay: Growth inhibition of human SN12C cells at 10 uM incubated for 48 hrs by sulforhodamine B assay relative to control; type: functional; conditions: read-out: GI
[35] = system: RXF 393; assay: Growth inhibition of human RXF393 cells at 10 uM incubated for 48 hrs by sulforhodamine B assay relative to control; type: functional; conditions: RXF 393, 48 h, read-out: GI
[36] = system: HT-29; assay: Growth inhibition of human HT-29 cells at 10 uM incubated for 48 hrs by sulforhodamine B assay relative to control; type: functional; conditions: HT-29, 48 h, read-out: GI
[37] = system: MDA-MB-468; assay: Growth inhibition of human MDA-MB-468 cells at 10 uM incubated for 48 hrs by sulforhodamine B assay relative to control; type: functional; conditions: MDA-MB-468, 48 h, read-out: GI
[38] = system: MDA-MB-231; assay: Growth inhibition of human MDA-MB-231 cells at 10 uM incubated for 48 hrs by sulforhodamine B assay relative to control; type: functional; conditions: MDA-MB-231, 48 h, read-out: GI
[39] = molecular target: Vascular endothelial growth factor receptor 2 (Homo sapiens, UniProt P35968); assay: Inhibition of human N-terminal GST tagged VEGFR-2 expressed in baculovirus infected Sf9 cells using poly (Glu,Tyr) 4:1 as substrate in presence of ATP by Kinase-Glo luminescence assay
Vascular endothelial growth factor receptor 2, sequence (P35968 whole entry): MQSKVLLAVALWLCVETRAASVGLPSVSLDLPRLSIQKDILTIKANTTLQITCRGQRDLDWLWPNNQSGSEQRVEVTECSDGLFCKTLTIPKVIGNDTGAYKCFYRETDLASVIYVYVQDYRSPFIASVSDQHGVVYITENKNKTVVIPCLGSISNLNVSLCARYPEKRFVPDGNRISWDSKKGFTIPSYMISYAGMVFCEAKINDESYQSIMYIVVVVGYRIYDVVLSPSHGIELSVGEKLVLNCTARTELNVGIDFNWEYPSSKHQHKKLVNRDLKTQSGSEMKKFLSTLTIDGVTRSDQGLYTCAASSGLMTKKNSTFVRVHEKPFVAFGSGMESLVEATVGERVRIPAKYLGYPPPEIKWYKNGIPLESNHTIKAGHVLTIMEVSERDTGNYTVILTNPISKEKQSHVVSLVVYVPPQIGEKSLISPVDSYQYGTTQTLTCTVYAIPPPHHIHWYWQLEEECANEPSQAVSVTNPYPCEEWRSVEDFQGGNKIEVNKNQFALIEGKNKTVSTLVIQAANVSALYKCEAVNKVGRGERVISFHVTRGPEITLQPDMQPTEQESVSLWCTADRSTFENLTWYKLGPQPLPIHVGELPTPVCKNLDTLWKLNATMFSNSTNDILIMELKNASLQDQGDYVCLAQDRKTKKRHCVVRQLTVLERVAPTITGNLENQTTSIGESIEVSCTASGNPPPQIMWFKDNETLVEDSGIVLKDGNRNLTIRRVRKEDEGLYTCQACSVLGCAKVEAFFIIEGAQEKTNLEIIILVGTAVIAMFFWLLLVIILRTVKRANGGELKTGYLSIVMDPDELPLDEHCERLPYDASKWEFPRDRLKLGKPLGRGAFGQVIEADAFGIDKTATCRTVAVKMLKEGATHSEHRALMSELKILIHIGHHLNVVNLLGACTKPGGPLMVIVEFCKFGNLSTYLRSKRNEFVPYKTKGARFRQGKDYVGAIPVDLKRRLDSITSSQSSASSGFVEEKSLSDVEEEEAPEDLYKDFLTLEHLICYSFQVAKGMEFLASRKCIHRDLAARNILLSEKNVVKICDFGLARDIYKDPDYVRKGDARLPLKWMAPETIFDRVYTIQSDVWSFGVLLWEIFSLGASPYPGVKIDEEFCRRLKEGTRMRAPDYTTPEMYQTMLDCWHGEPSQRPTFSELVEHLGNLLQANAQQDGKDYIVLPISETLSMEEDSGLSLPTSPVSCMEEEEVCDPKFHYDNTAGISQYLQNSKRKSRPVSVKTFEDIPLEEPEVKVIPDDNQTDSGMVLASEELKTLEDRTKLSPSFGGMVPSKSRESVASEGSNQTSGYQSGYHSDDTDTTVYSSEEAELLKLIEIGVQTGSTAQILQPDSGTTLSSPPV

[40] = system: OVCAR-4; assay: Growth inhibition of human OVCAR4 cells at 10 uM incubated for 48 hrs by sulforhodamine B assay relative to control; type: functional; conditions: OVCAR-4, 48 h, read-out: GI
[41] = system: NCI-H23; assay: Growth inhibition of human NCI-H23 cells at 10 uM incubated for 48 hrs by sulforhodamine B assay relative to control; type: functional; conditions: NCI-H23, 48 h, read-out: GI
[42] = system: SF-539; assay: Growth inhibition of human SF539 cells at 10 uM incubated for 48 hrs by sulforhodamine B assay relative to control; type: functional; conditions: SF-539, 48 h, read-out: GI
[43] = system: MCF7; assay: Inhibition of VEGFR2 level in human MCF7 cells at 10 uM measured after 48 hrs by ELISA relative to control; type: functional; conditions: MCF7, 48 h
[44] = system: HCT-15; assay: Growth inhibition of human HCT15 cells at 10 uM incubated for 48 hrs by sulforhodamine B assay relative to control; type: functional; conditions: HCT-15, 48 h, read-out: GI

## COc1ccc(C(=O)CSc2nccc(Nc3cccc(C(C)=O)c3)n2)cc1
[1]
  inhibition of growth at 10 µM: 37%
[2]
  inhibition of growth at 10 µM: 22%
[3]
  inhibition of growth at 10 µM: 19%
[4]
  inhibition of growth at 10 µM: 37%
[5]
  inhibition of growth at 10 µM: 24%
[6]
  inhibition of growth at 10 µM: 46%
[7]
  inhibition of growth at 10 µM: 32%
[8]
  inhibition of growth at 10 µM: 53%
[9]
  inhibition of growth at 10 µM: 14%
[10]
  inhibition of growth at 10 µM: 15%
[11]
  IC50: 13.2 µM
[12]
  inhibition of growth at 10 µM: 11%
[13]
  inhibition of growth at 10 µM: 18%
[14]
  inhibition of growth at 10 µM: 23%
[15]
  inhibition of growth at 10 µM: 35%
[16]
  inhibition of growth at 10 µM: 27%
[17]
  inhibition of growth at 10 µM: 55%
[18]
  inhibition of growth at 10 µM: 35%
[19]
  inhibition of growth at 10 µM: 40%
[20]
  inhibition of growth at 10 µM: 29%
[21]
  inhibition of growth at 10 µM: 23%
[22]
  inhibition of growth at 10 µM: 35%
[23]
  inhibition of growth at 10 µM: 37%
[24]
  inhibition of growth at 10 µM: 31%
[25]
  IC50: 67.1 µM
[26]
  inhibition of growth at 10 µM: 42%
[27]
  inhibition of growth at 10 µM: 45%
[28]
  inhibition of growth at 10 µM: 35%
[29]
  inhibition of growth at 10 µM: 12%
[30]
  inhibition of growth at 10 µM: 22%
[31]
  inhibition of growth at 10 µM: 15%
[32]
  inhibition of growth at 10 µM: 15%
[33]
  inhibition of growth at 10 µM: 13%
[34]
  inhibition of growth at 10 µM: 22%
[35]
  inhibition of growth at 10 µM: 14%
[36]
  inhibition of growth at 10 µM: 11%
[37]
  inhibition of growth at 10 µM: 34%
[38]
  inhibition of growth at 10 µM: 27%
[39]
  IC50: 0.42 µM
[40]
  inhibition of growth at 10 µM: 19%
[41]
  inhibition of growth at 10 µM: 19%
[42]
  inhibition of growth at 10 µM: 12%
[43]
  inhibition at 10 µM: 16%
[44]
  inhibition of growth at 10 µM: 22%
